Experiment: Radiochemical stability in mouse serum (rad-TLC)
Assay type: in vitro ADME
Settings: 37 °C
Description: The stability of PET probes [^18F]2 and [^18F]6 was measured in isotonic NaCl solution (0.9% NaCl) and mouse and human serums at 37 °C for up to 120 min by rad-TLC at 0 min, 30 min, 60 min and 120 min post incubation. The results obtained are presented in Fig. 5 and SI-Figs. S10–S15, SI-Table S1. […] The plausible explanation of the instability of [^18F]6 could be attributed to the covalent interaction of [^18F]6’s SO2F group with primary amines of amino acid residues present in the protein rich mouse and human serums. In fact, in an unrelated study, Zhao et al. reported formation of sulfonamide bond between sulfuryl fluoride and primary amine of conserved lysine residues of different kinases. […] Based on 2’s favorable blood–brain barrier permeability, nanomolar binding affinity and PET probe [^18F]2’s excellent stability in both mouse and human serums, further in vivo evaluations were performed only with PET probe [^18F]2.
Stability of [^18F]2 and [^18F]6 was assessed in isotonic NaCl solution and human and mouse serums. To perform this stability assay, 100 µL of [^18F]2 (~ 37.0 MBq) or 100 µL of [^18F]6 (~ 37.0 MBq) as in final formulation was added to 100 µL of human serum or mouse serum in a microcentrifuge tube. The resultant mixture was incubated at 37 °C for 120 min. To assess the radiochemical stability of the probes, a small aliquot (~ 0.5 µL) was taken out from the mixture in triplicate at 0 min, 30 min, 60 min and 120 min during incubation, and analyzed on a rad-TLC using 0.5:9.5 methanol: chloroform as a mobile phase using i-TLC to estimate the stability of [^18F]2 or [^18F]6 at different time points post-incubation. After Stability preparative processes initial i-TLC development was considered as 0 min.

- Percentage of intact probe (0 min): 100 ± 0.0%
- Percentage of intact probe (30 min): 100 ± 0.0%
- Percentage of intact probe (60 min): 100 ± 0.0%
SMILES: O=C(Nc1cnccc1-c1ccc([18F])cc1)c1ccnc(NC(=O)C2CC2)c1 [[^18F]2]
